Laboratory results taken from publication PMC5100903, “Tissue Kallikrein Inhibitors Based on the Sunflower Trypsin Inhibitor Scaffold – A Potential Therapeutic Intervention for Skin Diseases” (PLoS ONE, 2016).
Where two headings read alike, the source gives them in different places. Positions of bridges follow the written chain, without caps; N, C: chain ends. Residues, ends and D or L forms follow the SMILES beside them.

What was measured:
[1] = biological target: T1, Human Neutrophil Elastase (Homo sapiens, UniProt P08246); experiment: Human neutrophil elastase inhibition, MeOSuc-AAPV-AMC assay; format: biochemical; conditions: read-out: % inhibition of Human Neutrophil Elastase
T1 construct: human neutrophil elastase (purified from human plasma); purchased Abcam; host or cells: human plasma (so in the source)
T1 sequence (P08246 30-247 limits assumed): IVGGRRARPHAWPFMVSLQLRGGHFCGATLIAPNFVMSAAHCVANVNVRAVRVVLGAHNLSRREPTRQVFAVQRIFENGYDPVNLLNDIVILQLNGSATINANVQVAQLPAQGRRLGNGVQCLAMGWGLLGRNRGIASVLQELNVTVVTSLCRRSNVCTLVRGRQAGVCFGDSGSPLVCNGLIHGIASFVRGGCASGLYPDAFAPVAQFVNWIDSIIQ
Experimental: (§1) All assays were performed on 96-well microplates and the change in relative fluorescence unit (RFU) was measured by fluorescence spectrometer (BMG FLUOstar OPTIMA). The excitation/emission wavelength was 360/460 nm for the substrate Boc-VPR-AMC (Bachem AG, Hauptstrasse, Switzerland) and MeOSuc-AAPV-AMC (Bachem AG, Hauptstrasse, Switzerland) and 485/520 nm for BODIPY_FL casein (Invitrogen, Carlsbad, US). Stock solution of Boc-VPR-AMC was prepared by dissolving the solid in dimethyl sulfoxide to 100 mM and 10 mM for MeOSuc-AAPV. For BODIPY_FL casein, it was reconstituted to 1 mg/mL in 1xPBS. […] The % of inhibition was calculated by the following equation: % of Inhibition=(1−(Sample RFU − Min RFU)/(Max RFU − Min RFU)) X100
(§2) Each inhibition curves were done in triplicates with a minimum of five concentration points fitted. Fitting of each curve was done using SigmaPlot with the Four Parameter Logistic Function and the IC50 calculated. […] All tested compounds were reconstituted to stock solution in water.
(§3) The diluent for all the tested compounds, protein and substrate (except KLK7, which was done with 10 mM Tris pH 7.8) was 1xPBS pH 8.0–8.9. The serially diluted ligands were mixed with diluted bovine trypsin (Sigma, Dorset, U.K.) or activated KLK14, or KLK5, or activated KLK8 or matriptase (catalytic domain only, >90% purity by SDS-PAGE, endotoxin <0.1 ng/μg, R&D, Minneapolis, U.S.) or activated KLK7 or human neutrophil elastase (purified from human plasma, >95% purity by SDS-PAGE, Abcam, Cambridge, U.K.) or porcine pancreatic elastase 1 (Sigma, Dorset, U.K.) or human plasma kallikrein or human plasma plasmin (purified from human plasma, ≥95% purity by SDS-PAGE, BioVision, Milpitas, U.S.). 20μL of the ligand-protein mixture was pipetted to a well of a 96-well microplate in triplicates. The reaction was started by addition of 90–100 μL of the diluted substrate solution (contained 0.05% v/v Brij35) and the plate incubated at 25°C but 37°C for KLK7. RFU reading for each well was taken 6 minutes (trypsin) or 15 minutes (KLK14, KLK5, KLK8, matriptase, human neutrophil elastase, porcine pancreatic elastase 1, plasma kallikrein and plasmin) or 20 hours (KLK7) after substrate addition.

KLK14 = biological target: T2, KLK14 (Homo sapiens, UniProt Q9P0G3); experiment: biochemical; format: biochemical
T2 construct: purchased R&D
T2 sequence (Q9P0G3 25-251): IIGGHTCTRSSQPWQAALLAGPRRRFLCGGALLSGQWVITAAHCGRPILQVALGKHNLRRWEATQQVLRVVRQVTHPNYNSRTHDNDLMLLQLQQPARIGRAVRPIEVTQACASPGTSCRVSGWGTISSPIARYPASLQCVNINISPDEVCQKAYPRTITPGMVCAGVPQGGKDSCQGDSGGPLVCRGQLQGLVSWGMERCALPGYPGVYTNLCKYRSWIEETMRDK
Experimental: as §1, with “The excitation/emission wavelength was 360/460 nm for the substrate Boc-VPR-AMC (Bachem AG, Hauptstrasse, Switzerland) and MeOSuc-AAPV-AMC (Bachem AG, Hauptstrasse, Switzerland) and 485/520 nm for BODIPY_FL casein (Invitrogen, Carlsbad, US).” left out
as §2
KLK7 and KLK14 were activated by addition of 1 mM f/c CaCl2 (Sigma, Dorset, U.K.), 0.05% v/v Brij35 (Sigma, Dorset, U.K.), 20 nM f/c thermolysin (Sigma, Dorset, U.K.) and incubated at 37°C for 1 hour. The reaction was stopped by addition of ethylenediaminetetraacetic acid (EDTA, 50 mM f/c). […] The RFU value reached by the thermolysin control was used as the minimum RFU for calculating the % of inhibition for KLK7.
The diluent for all the tested compounds, protein and substrate (except KLK7, which was done with 10 mM Tris pH 7.8) was 1xPBS pH 8.0–8.9. […] 20μL of the ligand-protein mixture was pipetted to a well of a 96-well microplate in triplicates. The reaction was started by addition of 90–100 μL of the diluted substrate solution (contained 0.05% v/v Brij35) and the plate incubated at 25°C but 37°C for KLK7. RFU reading for each well was taken 6 minutes (trypsin) or 15 minutes (KLK14, KLK5, KLK8, matriptase, human neutrophil elastase, porcine pancreatic elastase 1, plasma kallikrein and plasmin) or 20 hours (KLK7) after substrate addition.

Human Plasma Kallikrein = Human Plasma Kallikrein (Homo sapiens, UniProt P03952); experiment: Human plasma kallikrein inhibition, Boc-VPR-AMC assay; format: biochemical; conditions: read-out: % inhibition of Human Plasma Kallikrein
Sequence of Human Plasma Kallikrein (P03952 20-638): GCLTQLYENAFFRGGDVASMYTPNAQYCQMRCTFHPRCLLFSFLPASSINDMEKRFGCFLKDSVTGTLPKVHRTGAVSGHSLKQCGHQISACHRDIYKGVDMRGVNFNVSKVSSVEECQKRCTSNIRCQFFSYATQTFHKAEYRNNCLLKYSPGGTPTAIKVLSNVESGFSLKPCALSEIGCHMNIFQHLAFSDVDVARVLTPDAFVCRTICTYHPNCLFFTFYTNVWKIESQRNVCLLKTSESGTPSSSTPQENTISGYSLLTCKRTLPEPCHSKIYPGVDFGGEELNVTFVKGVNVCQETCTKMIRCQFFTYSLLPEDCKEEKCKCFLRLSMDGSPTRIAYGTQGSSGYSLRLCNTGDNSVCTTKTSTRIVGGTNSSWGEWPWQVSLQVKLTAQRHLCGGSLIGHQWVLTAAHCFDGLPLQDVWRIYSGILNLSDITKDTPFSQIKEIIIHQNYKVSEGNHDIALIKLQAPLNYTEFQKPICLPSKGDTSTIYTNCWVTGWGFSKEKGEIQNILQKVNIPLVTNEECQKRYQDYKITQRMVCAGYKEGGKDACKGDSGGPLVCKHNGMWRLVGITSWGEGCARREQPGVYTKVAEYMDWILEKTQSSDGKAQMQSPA
Experimental: as §1, §2, §3

Human Plasma Plasmin = biological target: T3, Human Plasma Plasmin (Homo sapiens, UniProt P00747); experiment: biochemical
T3 construct: human plasma plasmin (purified from human plasma); purchased BioVision; host or cells: human plasma
T3 sequence (P00747 581-810 limits assumed): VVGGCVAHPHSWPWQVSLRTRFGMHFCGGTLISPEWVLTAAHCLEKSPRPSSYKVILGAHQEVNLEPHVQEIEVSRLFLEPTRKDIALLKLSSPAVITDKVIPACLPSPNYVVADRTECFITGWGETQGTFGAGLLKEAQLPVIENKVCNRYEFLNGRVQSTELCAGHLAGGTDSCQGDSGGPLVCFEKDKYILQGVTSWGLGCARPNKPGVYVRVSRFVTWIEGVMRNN
T3 sequence (P00747 98-580 partner limits assumed): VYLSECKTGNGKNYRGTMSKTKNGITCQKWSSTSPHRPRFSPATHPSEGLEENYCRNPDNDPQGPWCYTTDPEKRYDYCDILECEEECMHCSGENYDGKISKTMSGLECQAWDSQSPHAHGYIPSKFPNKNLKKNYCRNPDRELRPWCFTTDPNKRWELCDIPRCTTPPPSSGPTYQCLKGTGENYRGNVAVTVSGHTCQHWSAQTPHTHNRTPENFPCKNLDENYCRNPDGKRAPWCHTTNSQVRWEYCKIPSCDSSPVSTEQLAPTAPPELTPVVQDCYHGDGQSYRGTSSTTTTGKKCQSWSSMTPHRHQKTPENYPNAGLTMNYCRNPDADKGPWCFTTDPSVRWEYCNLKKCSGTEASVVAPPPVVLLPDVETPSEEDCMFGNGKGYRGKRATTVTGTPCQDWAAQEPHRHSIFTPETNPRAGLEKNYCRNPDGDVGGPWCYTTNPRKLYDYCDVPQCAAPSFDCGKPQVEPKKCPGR
Experimental: as §1, §2, §3

[2] = biological target: T4, Matriptase (catalytic domain only) (Homo sapiens, UniProt Q9Y5Y6); experiment: biochemical
T4 construct: matriptase (catalytic domain only, >90% purity by SDS-PAGE); purchased R&D
T4 sequence (Q9Y5Y6 615-854 limits assumed): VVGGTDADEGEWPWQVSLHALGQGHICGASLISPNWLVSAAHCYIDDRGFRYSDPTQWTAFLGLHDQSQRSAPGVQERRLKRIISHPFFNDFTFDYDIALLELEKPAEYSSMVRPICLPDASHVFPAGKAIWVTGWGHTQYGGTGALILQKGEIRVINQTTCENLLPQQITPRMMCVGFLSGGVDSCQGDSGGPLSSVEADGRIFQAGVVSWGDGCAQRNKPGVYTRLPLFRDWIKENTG
Experimental: as §1, §2, §3

[3] = at 10 μM, enzyme 10 nM, MeOSuc-AAPV-AMC 41 μM
[4] = at 10 μM, enzyme 14 nM, Boc-VPR-AMC 42 μM
[5] = enzyme 24 nM, Boc-VPR-AMC 42 μM, 25°C, 15 minutes

| SMILES | inhibition at 10 µM [1] | IC50 (KLK14) | inhibition at 10 µM (Human Plasma Kallikrein) | IC50 (Human Plasma Plasmin) | IC50 [2] | inhibition at 10 µM [1, 3] | IC50 (KLK14; enzyme 10 nM, Boc-VPR-AMC 45 μM, 25°C, 15 minutes) | fold potency drop on KLK14 compared to native SFTI (KLK14; from Table 3 IC50) | inhibition at 10 µM (Human Plasma Kallikrein; [4]) | IC50 (Human Plasma Plasmin; [5]) | IC50 ([2]; enzyme 10 nM, Boc-VPR-AMC 21 μM, 25°C, 15 minutes) |
| --- | --- | --- | --- | --- | --- | --- | --- | --- | --- | --- | --- |
| CC[C@H](C)[C@@H]1NC(=O)[C@H](CO)NC(=O)[C@H](CCCNC(=N)N)NC(=O)[C@H]([C@@H](C)O)NC(=O)[C@@H]2CSSC[C@H](NC(=O)[C@H](Cc3c[nH]cn3)NC(=O)[C@@H]3CCCN3C(=O)[C@@H]3CCCN3C1=O)C(=O)N[C@@H](Cc1c[nH]c3ccccc13)C(=O)N1CCC[C@H]1C(=O)N[C@@H](CC(=O)O)C(=O)NCC(=O)N[C@@H](CCCNC(=N)N)C(=O)N2 [Analogue 6] (cyclo(CTRSIPPHCWPDGR); disulfide 1-9) | 0% | 24 ± 2 nM | 15% | 407 ± 8 nM | 381 ± 12 nM |  |  |  |  |  |  |
| CC[C@H](C)[C@@H]1NC(=O)[C@H](CO)NC(=O)[C@H](CCCCN)NC(=O)[C@H]([C@@H](C)O)NC(=O)[C@@H]2CSSC[C@H](NC(=O)[C@H](Cc3c[nH]cn3)NC(=O)[C@@H]3CCCN3C(=O)[C@@H]3CCCN3C1=O)C(=O)N[C@@H](Cc1c[nH]c3ccccc13)C(=O)N1CCC[C@H]1C(=O)N[C@@H](CC(=O)O)C(=O)NCC(=O)N[C@@H](CCCNC(=N)N)C(=O)N2 [Analogue 2] (cyclo(CTKSIPPHCWPDGR); disulfide 1-9) | 0% | 85 ± 6 nM | 0% | 25 ± 1 nM | 206 ± 10 nM |  |  |  |  |  |  |
| CC[C@H](C)[C@@H]1NC(=O)[C@H](CO)NC(=O)[C@H](CCCCN)NC(=O)[C@H]([C@@H](C)O)NC(=O)[C@@H]2CSSC[C@H](NC(=O)[C@H](Cc3c[nH]cn3)NC(=O)[C@@H]3CCCN3C(=O)[C@@H]3CCCN3C1=O)C(=O)N[C@@H](Cc1ccccc1)C(=O)N1CCC[C@H]1C(=O)N[C@@H](CC(=O)O)C(=O)NCC(=O)N[C@@H](CCCNC(=N)N)C(=O)N2 [Analogue I10H] (cyclo(CFPDGRCTKSIPPH); disulfide 1-7) |  |  |  |  |  | 0% | 470 ± 47 nM | ~20 fold | 0% | 161 ± 6 nM | 2240 ± 567 nM |
| CC[C@H](C)[C@@H]1NC(=O)[C@@H]2CCCN2C(=O)[C@@H]2CCCN2C(=O)[C@H]([C@@H](C)CC)NC(=O)[C@H](CO)NC(=O)[C@H](CCCCN)NC(=O)[C@H]([C@@H](C)O)NC(=O)[C@@H]2CSSC[C@H](NC1=O)C(=O)N[C@@H](Cc1ccccc1)C(=O)N1CCC[C@H]1C(=O)N[C@@H](CC(=O)O)C(=O)NCC(=O)N[C@@H](CCCNC(=N)N)C(=O)N2 [Native SFTI, Sunflower Trypsin Inhibitor 1, reference compound] |  |  |  |  | 1250 ± 57 nM | 0% |  |  | 0% | 24 ± 4 nM |  |
